Measured values from ChEMBL document CHEMBL3885861, “Open TG-GATES”.

Organism: Rattus norvegicus
Assay: Open TG-GATES - Regimen: Single
Format: toxicity, organism-based, Sprague-Dawley
Parameters: regimen Single, gender Male, age 6 weeks
Conditions: in vivo, ip, route intraperitoneal injection; for APTT / Bas / Eos / Fbg / Hb / Lym / MCH / MCHC / Mono / Neu / PT / Plat / RBC / Ret / WBC / Ht / MCV: tissue Blood; for KIDNEY_L / KIDNEY_R / KIDNEY_TOTAL: tissue Kidney; for LIVER: tissue Liver; for ALP / ALT / AST / BUN / CRE / Ca / DBIL / GLC / IP / K / LDH / PL / RALB / TBIL / TC / TG / TP / gamma-GTP / Na: tissue Plasma
[1] = 0.3 mg/kg, 3 h, dose 300 ug/Kg, dose level Middle
[2] = 0.3 mg/kg, 6 h, dose 300 ug/Kg, dose level Middle
[3] = 0.3 mg/kg, 9 h, dose 300 ug/Kg, dose level Middle
[4] = 0.3 mg/kg, 24 h, dose 300 ug/Kg, dose level Middle
[5] = 3 mg/kg, 3 h, dose 3000 ug/Kg, dose level High
[6] = 3 mg/kg, 6 h, dose 3000 ug/Kg, dose level High
[7] = 3 mg/kg, 9 h, dose 3000 ug/Kg, dose level High
[8] = 3 mg/kg, 24 h, dose 3000 ug/Kg, dose level High

LPS
APTT [1]: 22.5 s
Bas [1]: 0%
Eos [1]: 0.3%
Fbg [1]: 152.7 mg/dL
Hb [1]: 13.6 g/dL
Lym [1]: 75%
MCH [1]: 21.8 pg
MCHC [1]: 32.9%
Mono [1]: 0.7%
Neu [1]: 24%
PT [1]: 17.9 s
Plat [1]: 65.5 x10_4/uL
RBC [1]: 625.3 x10_4/ul
Ret [1]: 9.1%
WBC [1]: 24.9 x10_2/uL
KIDNEY_L [1]: 1 g
KIDNEY_R [1]: 1 g
KIDNEY_TOTAL [1]: 2 g
LIVER [1]: 8.6 g
ALP [1]: 1337.3 IU/L
ALT [1]: 67.3 IU/L
AST [1]: 171 IU/L
BUN [1]: 12.7 mg/dL
CRE [1]: 0.2 mg/dL
Ca [1]: 9.7 mg/dL
DBIL [1]: 0.0533 mg/dL
GLC [1]: 138.7 mg/dL
IP [1]: 9.3 mg/dL
K [1]: 3.9 meq/L
LDH [1]: 487.3 IU/L
PL [1]: 134 mg/dL
RALB [1]: 2.2 g/dL
TBIL [1]: 0.2 mg/dL
TC [1]: 68.3 mg/dL
TG [1]: 96 mg/dL
TP [1]: 5 g/dL
gamma-GTP [1]: 1 IU/L
TERMINAL_BW [2]: 193.4 g
APTT [2]: 28.2 s
Bas [2]: 0%
Eos [2]: 1%
Fbg [2]: 185.7 mg/dL
Hb [2]: 13.6 g/dL
Ht [2]: 40.7%
Lym [2]: 56%
MCHC [2]: 33.3%
MCV [2]: 64.7 fL
Mono [2]: 1%
Neu [2]: 41.3%
PT [2]: 17.8 s
Plat [2]: 56 x10_4/uL
RBC [2]: 629.3 x10_4/ul
Ret [2]: 9.3%
WBC [2]: 34.8 x10_2/uL
KIDNEY_L [2]: 0.9 g
KIDNEY_R [2]: 0.9 g
KIDNEY_TOTAL [2]: 1.9 g
LIVER [2]: 8 g
ALP [2]: 1219 IU/L
ALT [2]: 143.7 IU/L
AST [2]: 272 IU/L
BUN [2]: 18.3 mg/dL
CRE [2]: 0.2 mg/dL
Ca [2]: 9.7 mg/dL
DBIL [2]: 0.1 mg/dL
GLC [2]: 140 mg/dL
IP [2]: 9.9 mg/dL
K [2]: 4 meq/L
LDH [2]: 1262.7 IU/L
Na [2]: 139.7 meq/L
PL [2]: 163.3 mg/dL
RALB [2]: 2.2 g/dL
TBIL [2]: 0.4 mg/dL
TC [2]: 103.7 mg/dL
TG [2]: 65.3 mg/dL
TP [2]: 5 g/dL
gamma-GTP [2]: 2.3 IU/L
TERMINAL_BW [3]: 188.8 g
APTT [3]: 22.1 s
Bas [3]: 0%
Eos [3]: 1%
Fbg [3]: 248.7 mg/dL
Hb [3]: 13.8 g/dL
Lym [3]: 51.3%
MCV [3]: 64.7 fL
Mono [3]: 1%
Neu [3]: 46.7%
Plat [3]: 59.9 x10_4/uL
RBC [3]: 643.7 x10_4/ul
Ret [3]: 8.7%
WBC [3]: 71 x10_2/uL
KIDNEY_L [3]: 0.9 g
KIDNEY_R [3]: 0.9 g
KIDNEY_TOTAL [3]: 1.9 g
LIVER [3]: 7.2 g
ALP [3]: 1291 IU/L
ALT [3]: 126.3 IU/L
AST [3]: 246.7 IU/L
BUN [3]: 16.3 mg/dL
CRE [3]: 0.2 mg/dL
Ca [3]: 10 mg/dL
DBIL [3]: 0.0533 mg/dL
GLC [3]: 139.3 mg/dL
IP [3]: 9.6 mg/dL
K [3]: 4.1 meq/L
LDH [3]: 1570.3 IU/L
Na [3]: 140.3 meq/L
PL [3]: 166.3 mg/dL
RALB [3]: 2.4 g/dL
TBIL [3]: 0.2 mg/dL
TC [3]: 119 mg/dL
TG [3]: 38 mg/dL
TP [3]: 5.4 g/dL
gamma-GTP [3]: 4.3 IU/L
TERMINAL_BW [4]: 189.4 g
APTT [4]: 19.4 s
Bas [4]: 0%
Eos [4]: 1%
Fbg [4]: 519 mg/dL
Hb [4]: 13.6 g/dL
Lym [4]: 61.7%
MCH [4]: 20.6 pg
MCHC [4]: 32.9%
Mono [4]: 2.7%
Neu [4]: 33.3%
PT [4]: 14.6 s
Plat [4]: 53.7 x10_4/uL
RBC [4]: 660.3 x10_4/ul
Ret [4]: 6.6%
WBC [4]: 82.4 x10_2/uL
KIDNEY_L [4]: 0.9 g
KIDNEY_R [4]: 0.9 g
KIDNEY_TOTAL [4]: 1.8 g
LIVER [4]: 9.2 g
ALP [4]: 1258 IU/L
ALT [4]: 36.7 IU/L
AST [4]: 71 IU/L
BUN [4]: 18.3 mg/dL
CRE [4]: 0.2 mg/dL
DBIL [4]: 0.01 mg/dL
GLC [4]: 181.3 mg/dL
IP [4]: 9.2 mg/dL
K [4]: 4.7 meq/L
LDH [4]: 64 IU/L
PL [4]: 176 mg/dL
RALB [4]: 2.7 g/dL
TBIL [4]: 0.07 mg/dL
TC [4]: 107 mg/dL
TG [4]: 47.7 mg/dL
TP [4]: 5.9 g/dL
gamma-GTP [4]: 1.7 IU/L
TERMINAL_BW [5]: 197.5 g
Bas [5]: 0.3%
Eos [5]: 0%
Fbg [5]: 186.3 mg/dL
Ht [5]: 40.6%
Lym [5]: 62.3%
MCV [5]: 66.6 fL
Mono [5]: 2%
Neu [5]: 34.7%
PT [5]: 17.1 s
Plat [5]: 83.4 x10_4/uL
RBC [5]: 608.7 x10_4/ul
Ret [5]: 9.7%
WBC [5]: 42.6 x10_2/uL
KIDNEY_L [5]: 0.9 g
KIDNEY_R [5]: 0.9 g
KIDNEY_TOTAL [5]: 1.9 g
LIVER [5]: 9.2 g
ALP [5]: 1326.7 IU/L
ALT [5]: 48 IU/L
AST [5]: 122.3 IU/L
BUN [5]: 15 mg/dL
CRE [5]: 0.2 mg/dL
Ca [5]: 10 mg/dL
DBIL [5]: 0.0233 mg/dL
GLC [5]: 148.7 mg/dL
K [5]: 4.1 meq/L
LDH [5]: 229.3 IU/L
RALB [5]: 2.2 g/dL
TBIL [5]: 0.0667 mg/dL
TC [5]: 78.3 mg/dL
TG [5]: 143 mg/dL
TP [5]: 4.8 g/dL
gamma-GTP [5]: 1.7 IU/L
TERMINAL_BW [6]: 192.5 g
APTT [6]: 25.9 s
Bas [6]: 0%
Eos [6]: 1%
Fbg [6]: 158.3 mg/dL
Lym [6]: 65.3%
MCHC [6]: 32.8%
MCV [6]: 64.5 fL
Mono [6]: 1%
Neu [6]: 31.7%
PT [6]: 18.2 s
Plat [6]: 47.4 x10_4/uL
RBC [6]: 627.3 x10_4/ul
Ret [6]: 8.9%
WBC [6]: 21.1 x10_2/uL
KIDNEY_L [6]: 1 g
KIDNEY_R [6]: 0.9 g
KIDNEY_TOTAL [6]: 1.9 g
LIVER [6]: 7.6 g
ALP [6]: 1321.7 IU/L
ALT [6]: 378.7 IU/L
AST [6]: 499.3 IU/L
BUN [6]: 23.3 mg/dL
CRE [6]: 0.2 mg/dL
Ca [6]: 9.5 mg/dL
DBIL [6]: 0.2 mg/dL
GLC [6]: 124.3 mg/dL
IP [6]: 10.4 mg/dL
K [6]: 4.4 meq/L
LDH [6]: 2239.3 IU/L
Na [6]: 140.3 meq/L
PL [6]: 156.7 mg/dL
RALB [6]: 2.2 g/dL
TBIL [6]: 0.3 mg/dL
TC [6]: 90 mg/dL
TG [6]: 87 mg/dL
TP [6]: 4.9 g/dL
gamma-GTP [6]: 2.7 IU/L
TERMINAL_BW [7]: 188.4 g
APTT [7]: 25 s
Bas [7]: 0%
Eos [7]: 1%
Fbg [7]: 180.7 mg/dL
Ht [7]: 41.4%
Lym [7]: 56%
MCHC [7]: 32.7%
MCV [7]: 64.7 fL
Mono [7]: 1%
Neu [7]: 42%
PT [7]: 17.9 s
Plat [7]: 27.3 x10_4/uL
RBC [7]: 641 x10_4/ul
Ret [7]: 8.6%
WBC [7]: 48.1 x10_2/uL
KIDNEY_L [7]: 0.9 g
KIDNEY_R [7]: 0.9 g
KIDNEY_TOTAL [7]: 1.9 g
LIVER [7]: 7.4 g
ALP [7]: 1439.3 IU/L
ALT [7]: 320.3 IU/L
AST [7]: 534.3 IU/L
BUN [7]: 29.7 mg/dL
CRE [7]: 0.2 mg/dL
Ca [7]: 9.5 mg/dL
DBIL [7]: 0.2 mg/dL
GLC [7]: 116 mg/dL
K [7]: 4.6 meq/L
LDH [7]: 1843.3 IU/L
Na [7]: 138.3 meq/L
PL [7]: 169.7 mg/dL
RALB [7]: 2.1 g/dL
TBIL [7]: 0.4 mg/dL
TC [7]: 115.7 mg/dL
TG [7]: 117.7 mg/dL
TP [7]: 4.8 g/dL
gamma-GTP [7]: 4 IU/L
TERMINAL_BW [8]: 191.8 g
APTT [8]: 23.8 s
Bas [8]: 0.7%
Eos [8]: 1%
Fbg [8]: 336 mg/dL
Hb [8]: 12.1 g/dL
Ht [8]: 37.4%
Lym [8]: 55.3%
MCHC [8]: 32.4%
MCV [8]: 64 fL
Mono [8]: 2%
Neu [8]: 40.7%
PT [8]: 15.3 s
Plat [8]: 41.9 x10_4/uL
RBC [8]: 583.3 x10_4/ul
Ret [8]: 7.7%
WBC [8]: 99.6 x10_2/uL
KIDNEY_L [8]: 0.9 g
KIDNEY_R [8]: 1 g
KIDNEY_TOTAL [8]: 1.9 g
LIVER [8]: 8.3 g
ALP [8]: 1299 IU/L
ALT [8]: 330.3 IU/L
AST [8]: 740.3 IU/L
BUN [8]: 31.7 mg/dL
CRE [8]: 0.2 mg/dL
DBIL [8]: 0.06 mg/dL
GLC [8]: 139 mg/dL
IP [8]: 9.4 mg/dL
K [8]: 4.4 meq/L
LDH [8]: 271.7 IU/L
RALB [8]: 2.2 g/dL
TBIL [8]: 0.2 mg/dL
TC [8]: 93.3 mg/dL
TG [8]: 45.3 mg/dL
TP [8]: 4.9 g/dL
gamma-GTP [8]: 6.7 IU/L
